Reference: paper PMC3365014, “Specific Recognition of p53 Tetramers by Peptides Derived from p53 Interacting Proteins” (PLoS ONE, 2012)
Entries after “also recorded” stand apart in the source; their conditions may differ.

System: FlAsH-labeled full-length p53 (M133L/V203A/N239Y/N268D)
Assay: Fluorescence-monitored analytical ultracentrifugation sedimentation velocity
Type: binding
Details: 25–50 nM FlAsH-p53, peptide up to 500 µM or solubility limit; 25 mM NaPi pH 7.2, 150 mM NaCl, 10% glycerol, 10°C
Description: We tested whether the peptides that bind tetrameric p53CTD can bind specifically to tetrameric p53 in a mixture of the different oligomers. Testing the specificity of the peptides for tetrameric p53 must be performed at very low p53 concentrations (<100 nM), where a significant population of dimers is present in addition to the tetramers [21]. Therefore, we used fluorescence-monitored analytical ultracentrifugation sedimentation velocity experiments using FlAsH-labeled full-length p53. The fluorescent label on p53 enables working at nanomolar protein concentrations and allows for specific detection of the protein without interference from any other molecule in the solution.
We incubated FlAsH-p53 with different concentrations of the peptides and measured the sedimentation profiles of the protein (Figure 7). […] Sedimentation coefficients of∼2 S correspond to dimers and∼3 S correspond to tetramers. Presumably, sedimentation coefficients of up to∼4 S correspond to p53 tetramers bound to one or more peptide molecules. […] Most likely higher sedimentation coefficients (>4 S) correspond to higher-order oligomers of p53.
C-terminally FlAsH-tagged (CCPGCC) p53 was expressed and reacted with FlAsH-EDT2 as described [24]. This introduces a specific fluorescent label at the carboxy terminus of p53. The protein was dialyzed against 25 mM NaPi pH = 7.2, 150 mM NaCl, 14.2 mM β-mercaptoethanol, 0.2 mg/ml BSA and 10% glycerol. […] The measurements were performed in a Beckman-Coulter Optima XL-I ultracentrifuge with an Aviv fluorescence detection system [29] in SedVel60K-FDS fluorescence velocity cells. The samples were equilibrated in the cells at 10°C for 3 hours before centrifugation. The AUC run was performed as described [23], [48] and analyzed using SedFit software [56].

Row | SMILES | AUC effect
1 | CSCC[C@H](NC(=O)CNC(=O)[C@@H]1CCCN1C(=O)[C@H](CCC(N)=O)NC(=O)[C@H](CC(C)C)NC(=O)[C@@H](N)[C@@H](C)O)C(=O)N[C@@H](CCCNC(=N)N)C(=O)N[C@H](C(=O)N[C@@H](CCCNC(=N)N)C(=O)N[C@@H](CCSC)C(=O)N[C@@H](CC(C)C)C(=O)N[C@@H](CC(=O)O)C(=O)N[C@@H](CC(=O)O)C(=O)N[C@@H](Cc1ccc(O)cc1)C(=O)N[C@@H](CCC(=O)O)C(N)=O)C(C)C [Cul7(376–390)] | a specific shift of the tetramer peak was observed but at much higher concentrations, and no high-order oligomers were formed; also recorded: causes a shift of the tetramer peak at very high peptide concentrations; also recorded: Tetramer shift
2 | CC[C@H](C)[C@H](NC(=O)[C@H](CCC(=O)O)NC(=O)[C@H](CCC(=O)O)NC(=O)[C@H](Cc1ccc(O)cc1)NC(=O)[C@H](CC(=O)O)NC(=O)[C@H](CC(=O)O)NC(=O)[C@H](CC(C)C)NC(=O)[C@H](CCSC)NC(=O)[C@H](CCCNC(=N)N)NC(=O)[C@@H](NC(=O)[C@H](CCCNC(=N)N)NC(=O)[C@H](CCSC)NC(=O)CN)C(C)C)C(=O)N[C@@H](CO)C(=O)N[C@@H](C)C(N)=O [PARC(386–400)] | a specific shift of the tetramer peak was observed but at much higher concentrations, and no high-order oligomers were formed; also recorded: Tetramer shift
